# According to PMC9697198, “Carbonic Anhydrase Inhibition Activities of Schiff’s Bases Based on Quinazoline-Linked Benzenesulfonamide” (Molecules, 2022):
# Several values for one entry are separate records, joined by “and”; a condition that tells them apart may be missing. Identical values can stand only once.
# Key:
# [1] = molecular target: hCA I (Homo sapiens, UniProt P00915); test: hCA I inhibition, stopped-flow assay; type: biochemical; settings: stopped-flow technique; mean from three different assays, errors ±5–10%
# Chain of hCA I (P00915 whole entry): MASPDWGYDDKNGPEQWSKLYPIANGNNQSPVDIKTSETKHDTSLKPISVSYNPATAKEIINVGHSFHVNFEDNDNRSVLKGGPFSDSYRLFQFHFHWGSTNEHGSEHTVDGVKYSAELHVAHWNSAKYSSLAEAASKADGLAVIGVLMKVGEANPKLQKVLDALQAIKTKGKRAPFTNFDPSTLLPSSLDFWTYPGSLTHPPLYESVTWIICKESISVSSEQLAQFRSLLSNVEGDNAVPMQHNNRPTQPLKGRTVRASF
# [2] = molecular target: hCA II (Homo sapiens, UniProt P00918); test: hCA II inhibition, stopped-flow assay; type: biochemical; settings: stopped-flow technique; mean from three different assays, errors ±5–10%
# [3] = molecular target: hCA XII (Homo sapiens, UniProt O43570); test: hCA XII inhibition, stopped-flow assay; type: biochemical; settings: for Selectivity Analysis hCA II/XII / Selectivity Analysis hCA I/XII: selectivity index (SI); for Selectivity Analysis hCA II/XII: ratio of Ki hCA II to Ki hCA XII; for Selectivity Analysis hCA I/XII: ratio of Ki hCA I to Ki hCA XII; for Ki: stopped-flow technique, mean from three different assays, errors ±5–10%
# Chain of hCA XII (O43570 25-354): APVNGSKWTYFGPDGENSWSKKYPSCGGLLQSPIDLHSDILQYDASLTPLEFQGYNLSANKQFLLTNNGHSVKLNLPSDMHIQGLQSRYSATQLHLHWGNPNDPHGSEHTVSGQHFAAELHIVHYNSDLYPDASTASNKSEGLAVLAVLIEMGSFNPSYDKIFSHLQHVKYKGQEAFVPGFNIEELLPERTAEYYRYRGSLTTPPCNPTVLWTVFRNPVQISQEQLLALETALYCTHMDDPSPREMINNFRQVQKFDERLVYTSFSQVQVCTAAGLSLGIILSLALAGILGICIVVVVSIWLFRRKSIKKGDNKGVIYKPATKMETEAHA
# [4] = molecular target: hCA IX (Homo sapiens, UniProt Q16790); test: hCA IX inhibition, stopped-flow assay; type: biochemical; settings: for Selectivity Analysis hCA I/IX / Selectivity Analysis hCA II/IX: selectivity index (SI); for Selectivity Analysis hCA I/IX: ratio of Ki hCA I to Ki hCA IX; for Selectivity Analysis hCA II/IX: ratio of Ki hCA II to Ki hCA IX; for Ki: stopped-flow technique, mean from three different assays, errors ±5–10%
Compound,Ki [1] [nM],Ki [2] [nM],Selectivity Analysis hCA II/XII [3],melting point [°C],Selectivity Analysis hCA I/IX [4],Selectivity Analysis hCA II/IX [4],Ki [4],Selectivity Analysis hCA I/XII [3],Ki [3] [nM]
"NS(=O)(=O)c1ccc(CCn2c(S)nc3ccccc3c2=O)cc1 [Compound 1, 4-(2-(2-mercapto-4-oxoquinazolin-3(4H)-yl)ethyl)benzenesulfonamide]",31.5,0.62,,,,,,,
"CCOC(=O)CSc1nc2ccccc2c(=O)n1CCc1ccc(S(N)(=O)=O)cc1 [Compound 2, Ethyl 2-((4-oxo-3-(4-sulfamoylphenethyl)-3,4-dihydroquinazolin-2-yl)thio)acetate]",,16.9 to 21.3,0.61,210 to 211,,,,,
"NNC(=O)CSc1nc2ccccc2c(=O)n1CCc1ccc(S(N)(=O)=O)cc1 [Compound 3, 4-(2-(2-((2-Hydrazineyl-2-oxoethyl)thio)-4-oxoquinazolin-3(4H)-yl)ethyl)benzenesulfonamide]",87.6,16.9,3.12,253 to 254,1.68,0.32,52.1 nM,16.22,5.4
"NS(=O)(=O)c1ccc(CCn2c(SCC(=O)N/N=C/c3ccccc3)nc3ccccc3c2=O)cc1 [Compound 4, 4-(2-(2-((2-(2-Benzylidenehydrazineyl)-2-oxoethyl)thio)-4-oxoquinazolin-3(4H)-yl)ethyl)benzenesulfonamide]",152,52.6,,296 to 298,,,61.7 nM,,38.4
"NS(=O)(=O)c1ccc(CCn2c(SCC(=O)NN=Cc3ccccc3Cl)nc3ccccc3c2=O)cc1 [Compound 5, 4-(2-(2-((2-(2-(2-Chlorobenzylidene)hydrazineyl)-2-oxoethyl)thio)-4-oxoquinazolin-3(4H)-yl)ethyl)benzenesulfonamide]",940,251,5.45,288 to 290,35.6,9.51,26.4 nM,20.39,46.1
"NS(=O)(=O)c1ccc(CCn2c(SCC(=O)NN=Cc3ccc(Cl)cc3)nc3ccccc3c2=O)cc1 [Compound 6, 4-(2-(2-((2-(2-(4-Chlorobenzylidene)hydrazineyl)-2-oxoethyl)thio)-4-oxoquinazolin-3(4H)-yl)ethyl)benzenesulfonamide]",568,127,1.87,288 to 289,6.37,1.42,88.6 nM and 89.1 nM,8.37,67.8
"NS(=O)(=O)c1ccc(CCn2c(SCC(=O)NN=Cc3ccc(Cl)cc3Cl)nc3ccccc3c2=O)cc1 [Compound 7, 4-(2-(2-((2-(2-(2,4-Dichlorobenzylidene)hydrazineyl)-2-oxoethyl)thio)-4-oxoquinazolin-3(4H)-yl)ethyl)benzenesulfonamide]",2350,433,4.84,304 to 305,107,19.67,22 nM,26.33,89.4
"NS(=O)(=O)c1ccc(CCn2c(SCC(=O)NN=Cc3ccc(Cl)c(Cl)c3)nc3ccccc3c2=O)cc1 [Compound 8, 4-(2-(2-((2-(2-(3,4-Dichlorobenzylidene)hydrazineyl)-2-oxoethyl)thio)-4-oxoquinazolin-3(4H)-yl)ethyl)benzenesulfonamide]",1830,325,5.12,271 to 272,52.5,9.33,34.8 nM,28.81,63.4
"NS(=O)(=O)c1ccc(CCn2c(SCC(=O)NN=Cc3c(Cl)cccc3Cl)nc3ccccc3c2=O)cc1 [Compound 9, 4-(2-(2-((2-(2-(2,6-Dichlorobenzylidene)hydrazineyl)-2-oxoethyl)thio)-4-oxoquinazolin-3(4H)-yl)ethyl)benzenesulfonamide]",2260,165,2.95,296 to 297,45.85,3.35,49.2 nM,40.35,55.9
"NS(=O)(=O)c1ccc(CCn2c(SCC(=O)NN=Cc3ccccc3F)nc3ccccc3c2=O)cc1 [Compound 10, 4-(2-(2-((2-(2-(2-Fluorobenzylidene)hydrazineyl)-2-oxoethyl)thio)-4-oxoquinazolin-3(4H)-yl)ethyl)benzenesulfonamide]",274,35.8,1.56,276 to 277,13.91,1.81,19.7 nM,11.96,22.9
"NS(=O)(=O)c1ccc(CCn2c(SCC(=O)NN=Cc3ccc(F)cc3)nc3ccccc3c2=O)cc1 [Compound 11, 4-(2-(2-((2-(2-(4-Fluorobenzylidene)hydrazineyl)-2-oxoethyl)thio)-4-oxoquinazolin-3(4H)-yl)ethyl)benzenesulfonamide]",132,49.5,3.13,292 to 293,8.57,3.21,15.4 nM,8.35,15.8
"Cc1ccccc1C=NNC(=O)CSc1nc2ccccc2c(=O)n1CCc1ccc(S(N)(=O)=O)cc1 [Compound 12, 4-(2-(2-((2-(2-(2-Methylbenzylidene)hydrazineyl)-2-oxoethyl)thio)-4-oxoquinazolin-3(4H)-yl)ethyl)benzenesulfonamide]",338,69.4,1.09,239 to 240,11.41,2.34,29.6 nM,5.31,63.5
"NS(=O)(=O)c1ccc(CCn2c(SCC(=O)NN=Cc3ccccc3[N+](=O)[O-])nc3ccccc3c2=O)cc1 [Compound 13, 4-(2-(2-((2-(2-(2-Nitrobenzylidene)hydrazineyl)-2-oxoethyl)thio)-4-oxoquinazolin-3(4H)-yl)ethyl)benzenesulfonamide]",992,569,26.60,288 to 289,16.95,9.73,58.5 nM,46.34,21.4
"NS(=O)(=O)c1ccc(CCn2c(SCC(=O)NN=Cc3ccc([N+](=O)[O-])cc3)nc3ccccc3c2=O)cc1 [Compound 14, 4-(2-(2-((2-(2-(4-Nitrobenzylidene)hydrazineyl)-2-oxoethyl)thio)-4-oxoquinazolin-3(4H)-yl)ethyl)benzenesulfonamide]",635,221,7.23,296 to 297,23.62,8.20,26.9 nM,20.83,30.5
"CN(C)c1ccc(C=NNC(=O)CSc2nc3ccccc3c(=O)n2CCc2ccc(S(N)(=O)=O)cc2)cc1 [Compound 15, 4-(2-(2-((2-(2-(4-(Dimethylamino)benzylidene)hydrazineyl)-2-oxoethyl)thio)-4-oxoquinazolin-3(4H)-yl)ethyl)benzenesulfonamide]",582,82.1,12.07,280 to 281,6.56,0.92,89.1 nM and 88.6 nM,85.58,6.8
"NS(=O)(=O)c1ccc(CCn2c(SCC(=O)NN=Cc3cccnc3)nc3ccccc3c2=O)cc1 [Compound 16, 4-(2-(4-Oxo-2-((2-oxo-2-(2-(pyridin-3-ylmethylene)hydrazineyl)ethyl)thio)quinazolin-3(4H)-yl)ethyl)benzenesulfonamide]",208,23.8,1.14,263 to 264,5.5,0.63,37.8 nM,10.0,20.8
"CC(=NNC(=O)CSc1nc2ccccc2c(=O)n1CCc1ccc(S(N)(=O)=O)cc1)c1ccccc1 [Compound 17, 4-(2-(4-Oxo-2-((2-oxo-2-(2-(1-phenylethylidene)hydrazineyl)ethyl)thio)quinazolin-3(4H)-yl)ethyl)benzenesulfonamide]",124,67.5,5.31,260 to 261,2.23,1.21,55.7 nM,9.78,12.7
"CC(=NNC(=O)CSc1nc2ccccc2c(=O)n1CCc1ccc(S(N)(=O)=O)cc1)c1cccnc1 [Compound 27, 4-(2-(4-Oxo-2-((2-oxo-2-(2-(1-(pyridin-3-yl)ethylidene)hydrazineyl)ethyl)thio)quinazolin-3(4H)-yl)ethyl)benzenesulfonamide]",238,10.8,0.31,,7.07,0.32,33.7 nM,6.87,34.7
